The source of these data is ChEMBL document CHEMBL1155628, “A new cembranolide from the soft coral Sinularia capillosa” (2000).

Converted amounts (≈) assume the structure as drawn.

The test system of one test is L1210. In words: Cytotoxicity against mouse L1210 cells. The format is functional. Particulars: read-out: ED50 (the source's name).
The subject of another test is P388. In words: Cytotoxicity against mouse P388 cells. The format is functional. Particulars: read-out: ED50 (the source's name).

On to `C=C1C(=O)O[C@@H]2C[C@H]1CC[C@]1(C)O[C@H]1CC/C(C)=C/CC[C@@]2(C)O` [FLEXIBILIDE], for which the EC50 in the test on L1210 stood at 3 µg/mL (≈ 8.97 µM); in the test on P388 it was 1.5 µg/mL (≈ 4.48 µM).

With `C=C1C(=O)O[C@]2(C)CC[C@@H]1C[C@@H](O)[C@@](C)(O)CC/C=C(\C)CC[C@@H]2O` [CAPILLOLIDE], the EC50 was 18.5 µg/mL (≈ 52.5 µM) in the test on L1210 and 15 µg/mL (≈ 42.6 µM) in the test on P388.

For `C=C1C(=O)O[C@]2(C)CC[C@@H]1C[C@@H]1O[C@@]1(C)CC/C=C(\C)CC[C@@H]2O` [SINULARIOLIDE], the values for the EC50 in the test with L1210 and in the test on P388 were 10 µg/mL (≈ 29.9 µM) and 8.5 µg/mL (≈ 25.4 µM), respectively.

For the compound `C=C1C(=O)O[C@]2(C)CC[C@@H]1C[C@@H]1O[C@@]1(C)CC[C@H](OC(C)=O)[C@@]1(C)CC[C@@H]2O1`, the results for the EC50 with L1210 and in the test with P388 were 5 µg/mL (≈ 12.7 µM) and 2.5 µg/mL (≈ 6.37 µM), respectively.
